Data reported in patent US8153624B2, “Compounds and methods for modulating FXR” (Eli Lilly and Company, priority 2007, dated 2012).

Key:
LDLR−/− mice = assay: LDLR−/− Serum Lipid Modulation; assay type: in vivo; settings: male LDLR−/− mice on western diet, 10 mg/kg once daily oral gavage, seven days
Experimental: LDLR−/− Serum Lipid Modulation
Acclimate animals for two weeks prior to study initiation. Maintain mice on a 12:12 hour light-dark cycle at 21° C. Provide deionized water ad libitum and maintain for two weeks on ‘western diet’ TD 88137 Diet (42% fat, 0.15% cholesterol, Harlan Teklad, Madison, Wis., USA) ad libitum. Optimize groups of five ten-week-old male LDLR−/− mice based on serum triglyceride and cholesterol levels. […] Separate lipoprotein fractions by FPLC, and quantify cholesterol with an in-line detection system. […] The colored product produced in the presence of cholesterol is monitored in the flow stream at 505 nm, and the analog voltage from the monitor is converted to a digital signal for collection and analysis. The change in voltage corresponding to change in cholesterol concentration is plotted vs. time, and the area under the curve corresponding to the elution of VLDL-C and HDL-C is calculated using Turbo Chrome® version 4.12F12 software (PerkinElmer Corporation). […]

[1] = biological target: T1, human FXR ligand-binding domain (Homo sapiens, UniProt Q96RI1); assay: FXR-SRC-1 Cofactor Recruitment Assay (Alpha Screen); assay type: biochemical; settings: FXR-SRC-1 interaction
T1 construct: purchased Invitrogen Corporation
T1 sequence (Q96RI1 242-472 isoform Q96RI1-2 limits assumed): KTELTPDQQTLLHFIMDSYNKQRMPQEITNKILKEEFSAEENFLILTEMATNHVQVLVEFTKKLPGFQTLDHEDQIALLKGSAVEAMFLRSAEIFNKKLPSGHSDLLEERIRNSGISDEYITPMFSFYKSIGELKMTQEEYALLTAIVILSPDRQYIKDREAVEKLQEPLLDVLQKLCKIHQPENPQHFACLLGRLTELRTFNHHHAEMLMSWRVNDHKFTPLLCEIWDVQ
T1 sequence (Q15788 600-774 partner limits assumed): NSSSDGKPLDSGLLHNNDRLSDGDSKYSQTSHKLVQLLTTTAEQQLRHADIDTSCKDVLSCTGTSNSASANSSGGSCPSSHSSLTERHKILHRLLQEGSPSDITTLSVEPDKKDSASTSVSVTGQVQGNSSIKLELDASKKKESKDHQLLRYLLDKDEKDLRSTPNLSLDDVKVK
Experimental: FXR-SRC-1 Cofactor Recruitment Assay
Compounds are evaluated by an FXR-SRC-1 Cofactor Recruitment assay using the Alpha (Amplified Luminescent Proximity Homogeneous Assay) Screen technology according to the manufacturer instructions (Perkin Elmer Corporation, Norwalk, Conn., USA) at various concentrations. Mix purified 6-HIS-tagged human FXR ligand-binding domain (amino acids 242-472), purified GST-tagged human SRC-1 nuclear receptor-interacting domain (amino acids 220-394), Nickel Chelate donor beads (Perkin Elmer Corporation) and Anti-GST antibody acceptor beads (Perkin Elmer Corporation) together and aliquot 12 μL per well into 384 well plates. Add compounds in 3 μL per well for a total assay volume of 15 μL and incubate at room temperature in the dark for 4 hours. After incubation, compounds that bind FXR and induce the interaction between the FXR and SRC-1 (available from Invitrogen Corporation Carlsbad, Calif., USA) would bring the two bead types into proximity generating luminescence that is quantified. Calculate EC50 values. Exemplified compounds of the invention are found to be effective in the SRC-1 FXR interaction assay with EC50s of about 38-5200 nM.

Human FXR = biological target: T2, Human FXR (Homo sapiens, UniProt Q96RI1); assay: Human FXR/FXR-Response Element Luciferase Reporter Cotransfection Assay; assay type: cell-based
T2 construct: expressed in transfected cells
T2 sequence (Q96RI1 1-486): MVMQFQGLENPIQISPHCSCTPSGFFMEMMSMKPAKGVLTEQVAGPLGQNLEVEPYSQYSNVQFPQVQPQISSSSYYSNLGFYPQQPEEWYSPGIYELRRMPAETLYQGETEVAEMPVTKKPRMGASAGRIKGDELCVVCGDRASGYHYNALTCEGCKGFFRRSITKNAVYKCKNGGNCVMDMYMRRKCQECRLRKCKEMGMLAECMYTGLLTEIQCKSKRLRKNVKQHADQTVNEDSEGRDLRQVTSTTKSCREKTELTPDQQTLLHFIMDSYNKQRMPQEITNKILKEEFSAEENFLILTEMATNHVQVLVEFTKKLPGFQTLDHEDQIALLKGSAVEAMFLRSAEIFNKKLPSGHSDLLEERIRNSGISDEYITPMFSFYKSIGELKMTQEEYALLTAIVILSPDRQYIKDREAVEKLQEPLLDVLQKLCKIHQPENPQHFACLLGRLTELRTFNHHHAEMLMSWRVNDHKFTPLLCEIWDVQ
Experimental: Human FXR/FXR-Response Element Luciferase Reporter Cotransfection Assay
Compounds of the present invention are tested using the Human FXR/FXR-Response Element Luciferase Reporter Cotransfection Assay. The assay is performed essentially as described in J. Biological Chem. 2006, 281 (52), 39831-39838, except that 10 μg total DNA per million cells is used. One of skill in the art is able to perform this assay without undue experimentation.

SMILES: Cc1cc(N2CCC(OCc3c(-c4c(Cl)cccc4Cl)noc3C3CC3)CC2)ccc1C(=O)O [Example 9, 4-{4-[5-Cyclopropyl-3-(2,6-dichloro-phenyl)-isoxazol-4-ylmethoxy]-piperidin-1-yl}-2-methyl-benzoic acid]
- lowers total cholesterol (LDLR−/− mice): about 76%
- lowers triglycerides (LDLR−/− mice): about 75%

SMILES: O=C(O)c1ccc(N2CCC(OCc3c(-c4c(Cl)cccc4Cl)noc3C3CC3)CC2)cc1 [Example 7, 4-{4-[5-Cyclopropyl-3-(2,6-dichloro-phenyl)-isoxazol-4-ylmethoxy]-piperidin-1-yl}-benzoic acid]
- EC50 [1]: ~325 nM
- EC50 (Human FXR): 220 nM
